Values joined by “and” are separate entries in the source; they are usually repeats but may differ in a detail not shown here. Equal values may be shown once. Inconclusive results and toxic doses are left out.
System: P388 leukemia ip, CD2F1 mice, survival T/C
Test: NCI In Vivo Anticancer Drug Screen. Data for tumor model P388 Leukemia (intraperitoneal) in CD2F1 (CDF1) mice
Settings: endpoint: median survival time, higher = longer survival
How it was run: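 Mice carrying the transplanted tumor received test compound or vehicle. Survival was recorded in each group, and the value is the treated-group measurement divided by that of the vehicle-treated control group.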

[1] = dose: 0.12 mg/kg/injection, schedule: Q01DX009 (ip), vehicle: water
[2] = dose: 1.0 mg/kg/injection, schedule: Q01DX009 (ip), vehicle: water
[3] = dose: 2.0 mg/kg/injection, schedule: Q01DX009 (ip), vehicle: water
[4] = dose: 4.0 mg/kg/injection, schedule: Q01DX009 (ip), vehicle: water
[5] = dose: 8.0 mg/kg/injection, schedule: Q01DX009 (ip), vehicle: water
[6] = dose: 12.5 mg/kg/injection, schedule: Q01DX009 (ip), vehicle: saline with Tween-80
[7] = dose: 50.0 mg/kg/injection, schedule: Q01DX009 (ip), vehicle: saline with Tween-80
[8] = dose: 100.0 mg/kg/injection, schedule: Q01DX009 (ip), vehicle: saline with Tween-80
[9] = dose: 200.0 mg/kg/injection, schedule: Q01DX009 (ip), vehicle: saline with Tween-80
[10] = dose: 25.0 mg/kg/injection, schedule: Q01DX009 (ip), vehicle: saline with Tween-80
[11] = dose: 60.0 mg/kg/injection, schedule: Q01DX005 (ip), vehicle: Klucel (hydroxypropylcellulose) (HPC)
[12] = dose: 120.0 mg/kg/injection, schedule: Q01DX005 (ip), vehicle: Klucel (hydroxypropylcellulose) (HPC)

How did the T/C [1] turn out when `COc1cccc2c1C(=O)c1c(O)c3c(c(O)c1C2=O)C[C@@](O)(/C(CO)=N/NC(=O)c1ccc(Cl)c(Cl)c1)C[C@@H]3OC1CC(N)C(O)C(C)O1` (stereo not given in full) was run?
Its T/C is 116 % of control.

And the T/C [2]?
Its T/C is 153 % of control and 172 % of control.

What about the T/C (dose: 1.56 mg/kg/injection, schedule: Q04DX003 (ip), vehicle: water) of the same compound?
Its T/C is 108 % of control.

What about the T/C [3] of the same compound?
Its T/C is 154 % of control and 176 % of control.

What about the T/C (dose: 2.0 mg/kg/injection, schedule: Q04DX003 (ip), vehicle: saline) of the same compound?
The T/C was 99 % of control and 105 % of control and 118 % of control.

What about the T/C (dose: 3.13 mg/kg/injection, schedule: Q04DX003 (ip), vehicle: water) of the same compound?
Its T/C is 104 % of control and 121 % of control.

What about the T/C [4] of the same compound?
The T/C was 202 % of control and 205 % of control.

What about the T/C (dose: 4.0 mg/kg/injection, schedule: Q04DX003 (ip), vehicle: saline) of the same compound?
The T/C was 108 % of control and 116 % of control.

What about the T/C (dose: 6.25 mg/kg/injection, schedule: Q04DX003 (ip), vehicle: water) of the same compound?
Its T/C is 155 % of control.

What about the T/C [5] of the same compound?
The T/C was 109 % of control and 241 % of control.

What about the T/C (dose: 25.0 mg/kg/injection, schedule: Q04DX003 (ip), vehicle: water) of the same compound?
Its T/C is 166 % of control and 167 % of control.

And the T/C (dose: 100.0 mg/kg/injection, schedule: Q04DX003 (ip), vehicle: water)?
The T/C was 124 % of control.

What about the T/C (dose: 512.0 mg/kg/injection, schedule: Q04DX003 (ip), vehicle: saline) of the same compound?
Its T/C is 99 % of control.

What about the T/C (dose: 1024.0 mg/kg/injection, schedule: Q04DX003 (ip), vehicle: saline) of the same compound?
The T/C was 90 % of control.

`CN1CCCN(C)C1c1cc(Br)ccc1O` was tested. Which T/C (dose: 6.25 mg/kg/injection, schedule: Q01DX009 (ip), vehicle: saline sonified) did it give?
Its T/C is 95 % of control.

What about the T/C (dose: 12.5 mg/kg/injection, schedule: Q01DX009 (ip), vehicle: saline sonified) of the same compound?
Its T/C is 90 % of control.

What about the T/C (dose: 25.0 mg/kg/injection, schedule: Q01DX009 (ip), vehicle: saline sonified) of the same compound?
Its T/C is 100 % of control.

What does the source list for `CCN(CC)Cc1c(C)[nH]c2c3c(ccc2c1=O)Oc1c(ccc2c(=O)c(CN(CC)CC)c(C)[nH]c12)O3`?
T/C (dose: 50.0 mg/kg/injection, schedule: Q01DX009 (ip), vehicle: Klucel (hydroxypropylcellulose) (HPC)): 96 % of control; T/C (dose: 100.0 mg/kg/injection, schedule: Q01DX009 (ip), vehicle: Klucel (hydroxypropylcellulose) (HPC)): 93 % of control; T/C (dose: 200.0 mg/kg/injection, schedule: Q01DX009 (ip), vehicle: Klucel (hydroxypropylcellulose) (HPC)): 96 % of control

With `Cc1cc(N=Nc2ccc(NC(=O)c3ccc(N)cc3)cc2C)ccc1N=Nc1ccc2cc(S(=O)(=O)O)cc(S(=O)(=O)O)c2c1` as the compound, how does the T/C (dose: 50.0 mg/kg/injection, schedule: Q01DX005 (ip), vehicle: saline with Tween-80) read?
Its T/C is 97 % of control.

And the T/C (dose: 50.0 mg/kg/injection, schedule: Q01DX005 (ip), vehicle: saline)?
The T/C was 107 % of control.

What about the T/C (dose: 50.0 mg/kg/injection, schedule: Q01DX005 (ip), vehicle: suspension in saline) of the same compound?
Its T/C is 101 % of control.

What about the T/C (dose: 100.0 mg/kg/injection, schedule: Q01DX005 (ip), vehicle: saline with Tween-80) of the same compound?
The T/C was 90 % of control.

And the T/C (dose: 100.0 mg/kg/injection, schedule: Q01DX005 (ip), vehicle: saline)?
Its T/C is 121 % of control.

What about the T/C (dose: 100.0 mg/kg/injection, schedule: Q01DX005 (ip), vehicle: suspension in saline) of the same compound?
Its T/C is 111 % of control.

And the T/C (dose: 200.0 mg/kg/injection, schedule: Q01DX005 (ip), vehicle: saline with Tween-80)?
Its T/C is 113 % of control.

And the T/C (dose: 200.0 mg/kg/injection, schedule: Q01DX005 (ip), vehicle: saline)?
The T/C was 121 % of control.

And the T/C (dose: 200.0 mg/kg/injection, schedule: Q01DX005 (ip), vehicle: suspension in saline)?
The T/C was 113 % of control.

What about the T/C (dose: 400.0 mg/kg/injection, schedule: Q01DX005 (ip), vehicle: saline with Tween-80) of the same compound?
Its T/C is 109 % of control.

What does the source list for `CC(C)=CCCC(=O)C(c1nc2nnc(N)n2[nH]c1=O)c1nc2nnc(N)n2[nH]c1=O`?
T/C (dose: 60.0 mg/kg/injection, schedule: Q01DX005 (ip), vehicle: saline): 104 % of control; T/C (dose: 120.0 mg/kg/injection, schedule: Q01DX005 (ip), vehicle: saline): 104 % of control; T/C (dose: 240.0 mg/kg/injection, schedule: Q01DX005 (ip), vehicle: saline): 95 % of control

What does the source list for `Cc1ccc(S(=O)(=O)N/N=C/c2c(Cl)n(-c3ccccc3)c3ccccc23)cc1`?
T/C (dose: 100.0 mg/kg/injection, schedule: Q01DX001 (ip), vehicle: saline with Tween-80): 100 % of control; T/C (dose: 200.0 mg/kg/injection, schedule: Q01DX001 (ip), vehicle: saline with Tween-80): 99 % of control; T/C (dose: 400.0 mg/kg/injection, schedule: Q01DX001 (ip), vehicle: saline with Tween-80): 97 % of control

Which results are given for `C[N+]1(CSC(=O)c2ccccc2)CCCCC1`?
T/C (dose: 3.12 mg/kg/injection, schedule: Q01DX009 (ip), vehicle: saline): 110 % of control; T/C (dose: 6.25 mg/kg/injection, schedule: Q01DX009 (ip), vehicle: saline): 114 % of control; T/C [6]: 115 % of control and 91 % of control; T/C (dose: 12.5 mg/kg/injection, schedule: Q01DX009 (ip), vehicle: saline): 107 % of control and 110 % of control; T/C [7]: 100 % of control and 116 % of control

What does the source list for `C=CC1(C)CC(O)C2C(C)C(=O)OC2C1C(=C)C` (stereo not given)?
T/C [8]: 100 % of control; T/C [9]: 100 % of control; T/C (dose: 400.0 mg/kg/injection, schedule: Q01DX009 (ip), vehicle: saline with Tween-80): 100 % of control

With `CC(NCCCSc1ccccc1)C(O)c1ccc(O)cc1` (stereo not given) as the compound, how does the T/C [10] read?
The T/C was 94 % of control.

And the T/C [7]?
The T/C was 100 % of control.

What does the source list for `COc1cccc2c1C(=O)c1c(O)c3c(c(O)c1C2=O)C[C@@](O)(/C(C)=N/NC(=O)c1ccc(N(C)C)cc1)C[C@@H]3OC1CC(N)C(O)C(C)O1` (stereo not given in full)?
T/C [1]: 94 % of control; T/C (dose: 0.25 mg/kg/injection, schedule: Q01DX009 (ip), vehicle: water): 111 % of control; T/C (dose: 0.5 mg/kg/injection, schedule: Q01DX009 (ip), vehicle: water): 150 % of control and 154 % of control; T/C [2]: 154 % of control and 164 % of control; T/C [3]: 164 % of control and 181 % of control; T/C [4]: 157 % of control and 172 % of control; T/C [5]: 86 % of control; T/C (dose: 10.0 mg/kg/injection, schedule: Q01DX001 (ip), vehicle: water): 159 % of control; T/C (dose: 16.0 mg/kg/injection, schedule: Q01DX009 (ip), vehicle: water): 89 % of control; T/C (dose: 20.0 mg/kg/injection, schedule: Q01DX001 (ip), vehicle: water): 166 % of control; T/C (dose: 40.0 mg/kg/injection, schedule: Q01DX001 (ip), vehicle: water): 115 % of control

`COC1=CC23CCCN2CCc2cc4c(cc2C3C1O)OCO4` (stereo not given) was tested. Which T/C (dose: 12.5 mg/kg/injection, schedule: Q01DX009 (ip), vehicle: water) did it give?
The T/C was 103 % of control.

What about the T/C (dose: 25.0 mg/kg/injection, schedule: Q01DX009 (ip), vehicle: water) of the same compound?
Its T/C is 99 % of control.

And the T/C (dose: 50.0 mg/kg/injection, schedule: Q01DX009 (ip), vehicle: water)?
The T/C was 104 % of control.

What about the T/C [11] of the same compound?
The T/C was 101 % of control.

And the T/C (dose: 100.0 mg/kg/injection, schedule: Q01DX009 (ip), vehicle: water)?
Its T/C is 96 % of control.

And the T/C [12]?
The T/C was 106 % of control.

What about the T/C (dose: 200.0 mg/kg/injection, schedule: Q01DX009 (ip), vehicle: water) of the same compound?
Its T/C is 99 % of control.

What about the T/C (dose: 240.0 mg/kg/injection, schedule: Q01DX005 (ip), vehicle: Klucel (hydroxypropylcellulose) (HPC)) of the same compound?
Its T/C is 101 % of control.

Which T/C [7] does the source give for `CCCCC(=O)N1C(=O)/C(=C\N(C)C)c2cc(C=O)ccc21` here?
Its T/C is 90 % of control.

What about the T/C [8] of the same compound?
The T/C was 90 % of control.

What about the T/C [9] of the same compound?
Its T/C is 90 % of control.

For `CN(C)CCSC1=Nc2ccc(Cl)cc2C(c2ccccc2Cl)N(C)C1` (stereo not given), which T/C [11] is on record?
Its T/C is 100 % of control.

And the T/C [12]?
Its T/C is 100 % of control.

`O[C@H](c1cc(C(F)(F)F)nc2c(C(F)(F)F)cccc12)[C@@H]1CCCCN1` was tested. Which T/C (dose: 3.13 mg/kg/injection, schedule: Q01DX009 (ip), vehicle: saline with Tween-80) did it give?
The T/C was 109 % of control.

And the T/C (dose: 6.25 mg/kg/injection, schedule: Q01DX009 (ip), vehicle: saline with Tween-80)?
The T/C was 102 % of control.

And the T/C [6]?
The T/C was 116 % of control.

What about the T/C [10] of the same compound?
Its T/C is 106 % of control.

How did the T/C (dose: 60.0 mg/kg/injection, schedule: Q01DX005 (ip), vehicle: saline with Tween-80) turn out when `NS(=O)(=O)c1ccc(NC(=O)Nc2cc(C(F)(F)F)ccc2Cl)cc1` was run?
Its T/C is 103 % of control.

And the T/C (dose: 120.0 mg/kg/injection, schedule: Q01DX005 (ip), vehicle: saline with Tween-80)?
The T/C was 96 % of control.

What about the T/C (dose: 240.0 mg/kg/injection, schedule: Q01DX005 (ip), vehicle: saline with Tween-80) of the same compound?
Its T/C is 87 % of control.

Which T/C (dose: 50.0 mg/kg/injection, schedule: Q01DX009 (ip), vehicle: saline) does the source give for `Cn1c(=O)c2nc(-c3ccc(Cl)c(Cl)c3)oc2n(C)c1=O` here?
Its T/C is 109 % of control.

What about the T/C (dose: 100.0 mg/kg/injection, schedule: Q01DX009 (ip), vehicle: saline) of the same compound?
Its T/C is 111 % of control.

What about the T/C (dose: 200.0 mg/kg/injection, schedule: Q01DX009 (ip), vehicle: saline) of the same compound?
Its T/C is 100 % of control.
